Reference: patent US6204005A, “Immunoassay for toxic congeners of polychlorinated biphenyls” (priority 1995, dated 2001)

Experiments:
[1] = test system: anti-hapten antibody (sera of rabbits immunized with KLH-hapten I conjugate); test: Inhibition ELISA with BSA-Competitor 11 coating conjugate (Methods A,B); assay type: binding, rabbit; conditions: for I10 (mdl): Table 3, selected analytes, NR/>100 ppm, NR--No Assay Response
Experimental: A solution of the coating antigen, consisting of 100 ng of a BSA conjugate of Hapten I or Exemplified Competitor 11 above, in 50 μl of PBS (phosphate buffered saline, pH 7.4, 10 mM phosphate, 150 mM NaCl), was dispensed into each well of a 96-well microtiter plate (Dynatech Immulon-2 commercially available from Dynatech, Inc., Chantilly, Va.) and incubated at 28° C. (+/-0.5° C.) for 2 hours. The coating antigen solution was then removed from the wells and the plate was washed three times with PBS. All wash steps utilized a Cambridge Technology, Inc. Platewasher 260, commercially available from Cambridge Technology, Inc. Cambridge, Mass. The remaining active sites in the wells were blocked with a 150 μl solution of 1% BSA in PBS with 0.02% sodium azide for 2 hours at 28° C. After removal of the blocking solution the plate was washed three times with PBS. Serum stored at -20° C. was freshly thawed and diluted 100-250,000 fold with the 1% BSA in PBS/DT blocking buffer (PBS buffer containing 10% by volume dimethylformamide and 0.5% Triton X-100). This solution (50 μl/well) was then dispensed into replicate wells (3-6) on the plate, which was covered and incubated for 1 hour at room temperature (RT). After removal of the incubation solution the plate was washed three times with PBS. The labeled antibody, anti-rabbit IgG (whole molecule)--alkaline phosphatase conjugate, (Sigma No. A-8025 commercially available from Sigma Chemical Company, St. Louis, Mo.), diluted 1/500 with BSA/PBS, was added in a quantity of 50 μl/well and incubated for 1 hour at 28° C. After removal of the second antibody solution the plate was washed three times with PBS. The wells were then washed (one time) with 10 mM diethanolamine (pH 9.4) which contained 0.5 mM magnesium chloride. Substrate solution (50 μl; 10 mg p-nitrophenylphosphate in 10.0 ml of the diethanolamine/magnesium chloride) was added to each well and incubated for 30 minutes at 28° C. Sodium hydroxide (50 μl of a 0.05 N solution) was added to each of the wells to stop the reaction. The final Absorbance in each well was determined at 405 nm using a Cambridge Technologies, Inc. Model 750 Microplate Reader commercially available from Cambridge Technologies, Inc., Cambridge, Mass. The titer of the sera was determined by a Log Sera Dilution versus Absorbance plot and the EC50 value.
Inhibition ELISA followed the basic assay procedure described above with the following addition: The serum sample was diluted to its EC80 value (400-1000 fold) with the 1% BSA in PBS blocking buffer to which had been added 10% dimethylformamide, volume/volume (v/v), and 0.5% Triton® X-100 (PBS-DT). An aqueous analyte solution (e.g., Aroclor® 1248) was prepared by solution of the analyte in dimethylformamide followed by dilution to the required concentration in PBS-DT. The analyte solution was added to the antibody solution to achieve the desired concentration of analyte (typically 1 ppb-100 ppm) and the resulting solution was incubated overnight at room temperature. This solution (50 μl/well) was then dispensed into replicate wells (3-6) on the plate and the assay completed as above. The minimum detection limit (I10 ) and the I50 values were determined using a Log (Analyte Concentration in parts per billion--ppb) versus Absorbance or by converting absorbance to the B/Bo ratio where B=Sample Absorbance and Bo=Absorbance of the Blank Sample. […] This figure illustrates the significant improvement in PCB sensitivity as measured by both minimum detection limit (B/Bo=0.9) and assay range (B/Bo=0.5) on using a competitor versus a hapten as the competition reagent.
This assay format gave a minimum detection limit (I10) of approximately 0.2 ppm and an I50 of approximately 3 ppm.

[2] = test system: Hapten VII sera (polyclonal antibodies); test: Sera direct EIA with Hapten VII sera and competitor enzyme conjugate; assay type: binding, mice
Experimental: The competitors A-E and Hapten VII were conjugated to the enzyme, amino modified Horseradish Peroxidase (HRP) (horseradish peroxidase commercially available from Sigma Chemical Co. (No. P-6782), St. Louis, Mo.; amino modified per R. Hsiao and H. Royer, Archives Biochem. Biophys., 198, 379-385 (1979) to give 6-24 free amines), using the carbodiimide mediated carboxyl activation procedure described for Hapten VII in Example 24. Hapten and competitor load were determined by UV/Vis spectroscopy, also as described for Hapten VII.
(§1) The direct EIA (immoblized antibody and competitor enzyme conjugate) was performed as follows. Serum or monoclonal antibody supernatant stored at -20° C. was diluted 1,000-40,000 fold with PBS which contained 0.1% Tween-20. This solution was dispensed (500 ul) into donkey anti-mouse second antibody coated tubes (DAM Tubes commercially available from Millipore Corp., Bedford, Mass.) and incubated at room temperature overnight. The antisera solution was decanted from the tubes and the tubes washed 3 times with distilled water. Non-specific sites in the tubes were blocked with 600 ul of BSA blocking buffer (EIA Blocking Buffer commercially available from Millipore Corp., Bedford, Mass.) and incubated for 2 hours at room temperature or overnight at 4° C. The blocking buffer was decanted and the tubes allowed to dry under ambient room conditions for at least 2 hours. The assay was performed by adding 500 ul of assay diluent (1% methanol (v/v) and 0.005% Tween-20 (w/v) in distilled water) to the required number of tubes followed by 10 ul of a methanol solution of the analyte (PCB congener). After a 5 minute incubation at room temperature, the solution was decanted and the tubes rinsed 3-4 times with tap water. The horseradish peroxidase competitor or Hapten VII conjugates were diluted 1,000-60,000 fold from 2-5 mg/ml stock solutions in PBS with conjugate diluent (Enzyme Conjugate Diluent commercially available from Millipore Corp., Bedford, Mass.). The enzyme conjugate (200 ul) was added to the tubes followed by a 5 minute incubation at room temperature. The conjugate solution was decanted and the tubes rinsed 3-4 times with tap water. Enzyme substrate solution (500 ul, KPL No. 50-76-04 commercially available from KPL Laboratories, Gaithersburg, Md.) was added and the tubes were incubated at room temperature for 5-15 minutes. The enzyme reaction was stopped with the addition of 500 ul of 1N HCl. The OD of the solution was determined at 450 nm. The data was plotted using Log (Congener Concentration) versus B/Bo (B=Sample Absorbance, Bo=Sample Blank Absorbance).
The direct EIA (Method 19) was used to evaluate sera samples taken on day 120.

[3] = relative to 2,3,7,8-TCDD = 1.0; cited from earlier work
[4] = test system: Hapten VII sera (polyclonal antibodies); test: Sera indirect EIA with Hapten VII sera and Competitor C; assay type: binding, mice; conditions: day 120 sera, Competitor C, FIG. 7
Experimental: The indirect EIA (immobilized competitor BSA conjugate) was performed as described by Karu, et al. (A. E. Karu, et al., J. Agric. Food Chem., 42, 301-309 (1994)).
The indirect EIA (Method 18) was used to evaluate sera samples taken on day 120.

[5] = target: Hapten VII derived monoclonal antibody S2B1; test: Monoclonal antibody direct EIA with Competitor D enzyme conjugate; assay type: binding; conditions: for estimated I50: FIG. 9, 4-parameter logistic fits; for I50: FIG. 9, monoclonal antibody S2B1, text value
Experimental: as §1
Monoclonal antibodies were derived essentially as described by Karu, et al. (A. E. Karu, et al., J. Agric. Food Chem., 42, 301-309 (1994)) using Hapten VII BSA conjugate and Competitor C BSA conjugate for the primary screen.
FIG. 9 illustrates the specificity of a direct EIA based on the Hapten VII derived monoclonal antibody S2B1 and Competitor D enzyme conjugate. Both 3,3',4,4'-tetrachlorobiphenyl and 3,3',4,4',5-pentachlorobiphenyl give ca. 1 ppb I50 values. Cross-reactions of a number of congeners which are significant Aroclor(R) consitutents are <0.001%.

[6] = Table 7, Hapten VII sera and Competitor D direct EIA
[7] = direct EIA, day 120 sera, Competitor C, FIG. 8
[8] = BSA-Competitor 11 coating conjugate, FIG. 1 Plot 3 (analyte Aroclor 1248)

## Clc1ccc(Cl)c(Cl)c1 [1,2,4-trichlorobenzene]
[1]
  I10 (mdl): > 100 ppm

## Clc1ccccc1Cl [1,2-dichlorobenzene]
[1]
  I10 (mdl): > 100 ppm

## Clc1cccc(Cl)c1 [1,3-dichlorobenzene]
[1]
  I10 (mdl): > 100 ppm

## Clc1ccc(Cl)cc1 [1,4-dichlorobenzene]
[1]
  I10 (mdl): > 100 ppm

## Clc1cc(Cl)c(-c2cc(Cl)c(Cl)cc2Cl)cc1Cl [2,2',4,4',5,5'-hexachlorobiphenyl]
[2]; [6]
  I50: > 20,000 ppb
[2]; [7]
  cross reaction relative to 3,3',4,4'-tetrachlorobiphenyl: < 0.05%
[3]
  TEF: less than 0.00001
[4]
  cross-reaction relative to 3,3',4,4'-tetrachlorobiphenyl: < 0.0%

## O=C(O)COc1ccc(Cl)cc1Cl [2,4-dichlorophenoxyacetic acid]
[1]
  I10 (mdl): > 100 ppm

## Oc1cc(Cl)ccc1Cl [2,5-dichlorophenol]
[1]
  I10 (mdl): > 100 ppm

## COc1cccc(Cl)c1 [3-chloroanisole]
[1]
  I10 (mdl): > 100 ppm

## Oc1cccc(Cl)c1 [3-chlorophenol]
[1]
  I10 (mdl): > 100 ppm

## Clc1ccc(-c2ccc(Cl)c(Cl)c2)cc1Cl [BZ No. 77, 3,3',4,4'-tetrachlorobiphenyl]
[2]; [6]
  I50: 3 ppb
[2]; [7]
  I50: 1.4 ppb
[3]
  TEF: 0.01
[5]
  estimated I50: 0.9 ppb
  I50: ca. 1 ppb
[4]
  I50: < 10 ppb

## Clc1ccc(-c2cc(Cl)c(Cl)c(Cl)c2)cc1Cl [BZ No. 126, 3,3',4,4',5-pentachlorobiphenyl]
[3]
  TEF: 0.1
[5]
  estimated I50: 1.2 ppb
  I50: ca. 1 ppb

## O=C(O)CCCCc1cc(Cl)ccc1Cl [Competitor 11, 5-(2,5-Dichlorophenyl)pentanoic acid]
[2]; Table 6, I50 of analyte 3,3',4,4'-tetrachlorobiphenyl with the listed competitor, Hapten VII sera
  I50: 6-8 ppb
[2]; in words, Table 6
  Assay sensitivity versus Hapten VII enzyme conjugate based assay: significantly more sensitive
[1]; [8]
  I50: approximately 3 ppm
  minimum detection limit (I10): approximately 0.2 ppm
